Reference: the RepoRT retention time repository (doi:10.1016/j.jchromb.2020.122105)
Counter-ions that a name gives are not always drawn.

Columns and labels:
Conditions in all cases: stereoisomer not certain
[1] = HILIC, Thermo Scientific Accucore HILIC, 100 × 2.1 mm, 2.6 µm, 0.5 mL/min, estimated dead time 0.44 min; A: water + 0.1% formic acid + 10 mM ammonium formate, pH 3; B: 5% water + 95% acetonitrile + 0.1% formic acid + 10 mM ammonium formate, pH 3; gradient (min/%B) 0/95 5/95 20/57 25/57 30/95 40/95
[2] = RP, Waters ACQUITY UPLC BEH C18, 100 × 2.1 mm, 1.7 µm, 0.2 mL/min, estimated dead time 1.1 min; A: water + 0.1% formic acid, pH 3; B: methanol + 0.1% formic acid, pH 3; gradient (min/%B) 0/5 5/5 25/100 30/100 30.1/5 35/5
[3] = RP, Waters CORTECS T3, 100 × 2.1 mm, 2.7 µm, 0.2 mL/min, estimated dead time 1.1 min; A: water + 0.1% formic acid, pH 3; B: methanol + 0.1% formic acid, pH 3; gradient (min/%B) 0/5 5/5 25/95 25.1/100 35/100 35.1/5 45/5
[4] = RP, Waters CORTECS T3, 100 × 2.1 mm, 2.7 µm, 0.2 mL/min, estimated dead time 1.1 min; A: water + 0.1% formic acid, pH 3; B: methanol + 0.1% formic acid, pH 3; gradient (min/%B) 0/0 1/0 6/5 30/100 35/100 35.1/0 40/0
[5] = HILIC, Merck SeQuant ZIC-HILIC, 150 × 2.1 mm, 5 µm, 0.75 mL/min, estimated dead time 0.44 min; A: water + 0.1% acetic acid + 10 mM ammonium acetate, pH 4; B: 5% water + 95% acetonitrile + 0.1% acetic acid + 10 mM ammonium acetate, pH 4; gradient (min/%B) 0/95 5/95 20/57 25/57 30/95 40/95
[6] = RP, Waters CORTECS T3, 100 × 2.1 mm, 2.7 µm, 0.25 mL/min, estimated dead time 0.88 min; A: water + 0.1% formic acid, pH 3; B: methanol + 0.1% formic acid, pH 3; gradient (min/%B) 0/5 5/5 25/95 25.1/100 35/100 35.1/5 45/5
[7] = RP, Waters CORTECS T3, 100 × 2.1 mm, 2.7 µm, 0.3 mL/min, estimated dead time 0.73 min; A: water + 0.1% formic acid, pH 3; B: methanol + 0.1% formic acid, pH 3; gradient (min/%B) 0/0 5/0 25/100 30/100 30.1/0 35/0
[8] = RP, Waters CORTECS T3, 100 × 2.1 mm, 2.7 µm, 0.15 mL/min, estimated dead time 1.5 min; A: water + 0.1% formic acid, pH 3; B: methanol + 0.1% formic acid, pH 3; gradient (min/%B) 0/5 5/5 25/95 25.1/100 35/100 35.1/5 45/5
[9] = RP, Waters ACQUITY UPLC BEH C18, 100 × 2.1 mm, 1.7 µm, 0.1 mL/min, estimated dead time 2.2 min; A: water + 0.1% formic acid, pH 3; B: methanol + 0.1% formic acid, pH 3; gradient (min/%B) 0/5 5/5 25/95 25.1/100 35/100 35.1/5 45/5
[10] = RP, Waters ACQUITY UPLC BEH C18, 100 × 2.1 mm, 1.7 µm, 0.2 mL/min, estimated dead time 1.1 min; A: water + 0.025% formic acid + 20 mM ammonium acetate + 0.055% ammonium hydroxide, pH 7; B: methanol; gradient (min/%B) 0/5 5/5 25/100 30/100 30.1/5 35/5
[11] = RP, Waters CORTECS T3, 100 × 2.1 mm, 2.7 µm, 0.3 mL/min, estimated dead time 0.73 min; A: water + 0.1% formic acid, pH 3; B: methanol + 0.1% formic acid, pH 3; gradient (min/%B) 0/0 1/0 6/5 30/100 35/100 35.1/0 40/0
[12] = HILIC, Waters XBridge BEH Amide, 100 × 2.1 mm, 2.5 µm, 0.5 mL/min, estimated dead time 0.44 min; A: water + 0.1% acetic acid + 10 mM ammonium acetate, pH 4; B: 5% water + 95% acetonitrile + 0.1% acetic acid + 10 mM ammonium acetate, pH 4; gradient (min/%B) 0/95 5/95 20/57 25/57 30/95 40/95
[13] = HILIC, Merck SeQuant ZIC-HILIC, 150 × 2.1 mm, 5 µm, 0.75 mL/min, estimated dead time 0.44 min; A: water + 10 mM ammonium formate, pH 6; B: 5% water + 95% acetonitrile + 10 mM ammonium formate, pH 6; gradient (min/%B) 0/95 5/95 20/57 25/57 30/95 40/95
[14] = RP, Waters CORTECS T3, 100 × 2.1 mm, 2.7 µm, 0.2 mL/min, estimated dead time 1.1 min; A: water + 0.1% formic acid, pH 3; B: methanol + 0.1% formic acid, pH 3; gradient (min/%B) 0/0 1/0 6/5 30/100 35/100 35.1/0 40/0; remark: listed apart in the source
[15] = RP, Waters CORTECS T3, 100 × 2.1 mm, 2.7 µm, 0.3 mL/min, estimated dead time 0.73 min; A: water + 0.1% formic acid, pH 3; B: methanol + 0.1% formic acid, pH 3; gradient (min/%B) 0/0 1/0 6/5 30/100 35/100 35.1/0 40/0; remark: listed apart in the source
[16] = RP, Waters CORTECS T3, 100 × 2.1 mm, 2.7 µm, 0.1 mL/min, estimated dead time 2.2 min; A: water + 0.1% formic acid, pH 3; B: methanol + 0.1% formic acid, pH 3; gradient (min/%B) 0/5 5/5 25/95 25.1/100 35/100 35.1/5 45/5
[17] = RP, Waters ACQUITY UPLC BEH C18, 100 × 2.1 mm, 1.7 µm, 0.1 mL/min, estimated dead time 2.2 min; A: water + 0.1% formic acid, pH 3; B: methanol + 0.1% formic acid, pH 3; gradient (min/%B) 0/5 5/5 25/100 30/100 30.1/5 35/5
[18] = RP, Waters CORTECS T3, 100 × 2.1 mm, 2.7 µm, 0.3 mL/min, estimated dead time 0.73 min; A: water + 0.1% formic acid, pH 3; B: methanol + 0.1% formic acid, pH 3; gradient (min/%B) 0/5 5/5 25/95 25.1/100 35/100 35.1/5 45/5
[19] = RP, Waters CORTECS T3, 100 × 2.1 mm, 2.7 µm, 0.3 mL/min, estimated dead time 0.73 min; A: water + 0.1% formic acid, pH 3; B: methanol + 0.1% formic acid, pH 3; gradient (min/%B) 0/5 5/5 25/100 30/100 30.1/5 35/5
[20] = RP, Waters CORTECS T3, 100 × 2.1 mm, 2.7 µm, 0.15 mL/min, estimated dead time 1.5 min; A: water + 0.1% formic acid, pH 3; B: methanol + 0.1% formic acid, pH 3; gradient (min/%B) 0/0 1/0 6/5 30/100 35/100 35.1/0 40/0
[21] = RP, Waters CORTECS T3, 100 × 2.1 mm, 2.7 µm, 0.3 mL/min, estimated dead time 0.73 min; A: water + 0.1% formic acid, pH 3; B: methanol + 0.1% formic acid, pH 3; gradient (min/%B) 0/0 5/0 25/100 30/100 30.1/0 35/0; remark: listed apart in the source
[22] = RP, Waters CORTECS T3, 100 × 2.1 mm, 2.7 µm, 0.25 mL/min, estimated dead time 0.88 min; A: water + 0.1% formic acid, pH 3; B: methanol + 0.1% formic acid, pH 3; gradient (min/%B) 0/0 1/0 6/5 30/100 35/100 35.1/0 40/0
[23] = RP, Waters CORTECS T3, 100 × 2.1 mm, 2.7 µm, 0.1 mL/min, estimated dead time 2.2 min; A: water + 0.1% formic acid, pH 3; B: methanol + 0.1% formic acid, pH 3; gradient (min/%B) 0/0 1/0 6/5 30/100 35/100 35.1/0 40/0

Compound	LC retention time [1] [min]	LC retention time [2] [min]	LC retention time [3] [min]	LC retention time [4] [min]	LC retention time [5] [min]	LC retention time [6] [min]	LC retention time [7] [min]	LC retention time [8] [min]	LC retention time [9] [min]	LC retention time [10] [min]	LC retention time [11] [min]	LC retention time [12] [min]	LC retention time [13] [min]	further results
CSCCC(NC=O)C(=O)O [FORMYL-L-METHIONYL PEPTIDE]	5.85	8.3	13.3	9.43	7.68	6.13	8.31	9.18	12.3	2.14	7.57	–	–	–
Nc1ccccc1S(=O)(=O)O [ANILINE-2-SULFONIC ACID]	1.05	2.68	5.88	3.02	–	1.89	2.13	3.09	5.22	2.03	2.13	1.66	–	–
O=S(=O)(O)Oc1c[nH]c2ccccc12 [INDOXYL SULFATE]	0.54	8.8	13.6	9.62	3.84	6.23	8.35	9.5	12.8	5.76	7.71	0.95	–	–
O=C(O)CCCCCCCC(=O)O [AZELAIC ACID]	1.1	16.3	21.8	18.4	9.72	15.6	15.4	17.6	19.9	1.41	16.9	–	7.14	–
CC(=O)NCCCC(=O)[O-] [4-ACETAMIDOBUTANOATE]	2.99	3.16	9.19	5.13	8.54	2.43	3.7	3.97	6.08	1.38	3.71	–	–	–
O=c1[nH]cnc2c1ncn2C1OC(CO)C(O)C1O (stereo not given) [INOSINE]	4.88	3.3	10.8	6.93	8.42	2.9	–	4.68	2.76	1.41	5.37	7.97	8.73	–
N[C@@H](Cc1ccc(O)c([N+](=O)[O-])c1)C(=O)O [3-NITRO-L-TYROSINE]	9.89	6.44	12.6	8.96	10.6	5.25	8.03	8.37	10.9	–	7.13	–	11	LC retention time [14]: 8.81 min; LC retention time [15]: 6.9 min; LC retention time [16]: 10.8 min; LC retention time [17]: 10.8 min; LC retention time [18]: 4.27 min; LC retention time [19]: 4.34 min; LC retention time [20]: 10.4 min; LC retention time [21]: 7.98 min; LC retention time [22]: 7.83 min; LC retention time [23]: 6.31 min
O=C(O)CCCCCCC(=O)O [SUBERIC ACID]	1.39	14.3	19.6	16.1	–	13.5	13.5	15.6	18	–	14.6	–	–	–
O=C(O)CCCCCC(=O)O [6-CARBOXYHEXANOATE]	2.01	11.9	16.9	13.3	11.9	10.9	11.3	13.1	15.6	–	11.7	–	12.9	–
